# Experimental data reported in US20260242395A1, “AMINOHETEROARYL KINASE INHIBITORS” (ALLORION THERAPEUTICS INC, priority 2022, published 2026).
# Key:
# Type in all cases: biochemical
# [1] = target: T1, CDK1/CyclinB (Homo sapiens, UniProt P06493); assay: CDK1/CyclinB kinase inhibitory activity (Caliper mobility shift); details: enzyme 3 nM, ATP 20 μM, 28° C. 30 min; read-out: CDK1/Cyclin B1 IC50
# T1 construct: purchased Millipore 14-450M
# Protocol: CDK1/CyclinB kinase inhibitory activity (IC50): 5 μl of various dilutions of test compound in 1× kinase buffer (50 mM HEPES pH 7.5, 10 mM MgCl2, 2 mM DTT and 0.01% Brij-35) was mixed with 10 μL of CDK1/CyclinB (Millipore, 14-450M #, final concentration 3 nM in 1× Kinase buffer) in 384 plates and incubated at room temperature for 10 min. To initiate each reaction, 10 μL of peptide solution containing fluorescently-labeled-peptide 18(5-FAM-QSPKKG-CONH2) (GL, 114202 #, final concentration 3000 nM) and ATP (final concentration 20 μM) in 1× Kinase buffer was added to each of the wells containing test compound and CDK1/CyclinB mixture. The reaction is then allowed to proceed at 28° C. for 30 min and terminated by the addition of 25 μL stop buffer (100 mM HEPES pH 7.5, 50 mM EDTA, 0.2% Coating Reagent #3 (Perkin Elmer, 760050 #) and 0.015% Brij-35).
# (§1) Following the kinase reaction, Caliper EZ reader II (Downstream voltages: −500V, Upstream voltages: −2250V, Base pressure −0.5 PSI, Screen pressure −1.2 PSI) was used to separate the phosphorylated (product) and the unphosphorylated (substrate) fluorescently-labeled peptide 18 based on their different mobility. Both substrate and product were measured and the ratio of these values were used to generate % conversion by Caliper EZ reader II. These conversion values were then transformed into % inhibition of kinase activity using the formula: % Inhibition=[(MA−X)/(MA−MI)]×100% where MA=conversion value of DMSO only controls, MI=conversion value of no enzyme controls and X=conversion value at any given compound dose. IC50 values were then calculated by plotting dose-response curves and then using the XLfit application in Excel software.
# [2] = target: T2, CDK7/CyclinH/MAT1 (Homo sapiens, UniProt P50613); assay: CDK7/CyclinH/MAT1 kinase inhibitory activity (Caliper mobility shift); details: enzyme 12.5 nM, ATP 70 μM, 28° C. 30 min; read-out: CDK7/Cyclin H/MAT1 IC50
# T2 construct: purchased Millipore 14-476M
# T2 sequence (P50613 whole entry): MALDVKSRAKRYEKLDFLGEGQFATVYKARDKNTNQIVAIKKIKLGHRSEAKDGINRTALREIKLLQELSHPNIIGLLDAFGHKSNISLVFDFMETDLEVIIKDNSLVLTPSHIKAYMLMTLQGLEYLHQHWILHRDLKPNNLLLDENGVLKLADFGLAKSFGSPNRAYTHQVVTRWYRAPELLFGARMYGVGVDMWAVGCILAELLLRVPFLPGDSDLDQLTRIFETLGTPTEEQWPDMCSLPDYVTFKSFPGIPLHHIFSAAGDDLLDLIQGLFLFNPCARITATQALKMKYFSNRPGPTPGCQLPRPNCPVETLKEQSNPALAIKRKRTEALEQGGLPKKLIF
# T2 sequence (P51946 whole entry partner): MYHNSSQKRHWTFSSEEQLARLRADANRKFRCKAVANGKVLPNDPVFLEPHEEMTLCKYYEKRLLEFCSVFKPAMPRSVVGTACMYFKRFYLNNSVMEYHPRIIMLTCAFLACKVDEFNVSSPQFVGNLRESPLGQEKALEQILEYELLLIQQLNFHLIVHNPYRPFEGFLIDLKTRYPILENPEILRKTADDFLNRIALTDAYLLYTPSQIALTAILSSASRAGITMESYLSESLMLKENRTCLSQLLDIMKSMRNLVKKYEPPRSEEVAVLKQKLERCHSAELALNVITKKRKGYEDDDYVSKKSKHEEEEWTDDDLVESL
# T2 sequence (P51948 whole entry partner): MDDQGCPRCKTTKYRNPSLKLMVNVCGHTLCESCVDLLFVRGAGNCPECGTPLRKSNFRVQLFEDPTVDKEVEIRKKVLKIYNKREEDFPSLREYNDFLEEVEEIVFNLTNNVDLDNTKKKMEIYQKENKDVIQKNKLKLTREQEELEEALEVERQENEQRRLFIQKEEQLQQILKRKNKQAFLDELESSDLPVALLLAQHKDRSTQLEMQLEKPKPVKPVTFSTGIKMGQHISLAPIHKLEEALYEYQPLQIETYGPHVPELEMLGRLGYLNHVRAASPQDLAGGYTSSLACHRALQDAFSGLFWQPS
# Protocol: (§2) CDK7/CyclinH/MAT1 kinase inhibitory activity (IC50): 5 μl of various dilutions of test compound in 1× kinase buffer (20 mM HEPES, pH 7.5, 10 mM MgCl2, 2 mM DTT and 0.01% Triton X-100) was mixed with 10 μL of CDK7/CyclinH/MAT1 (Millipore, 14-476M #, final concentration 12.5 nM in 1× Kinase buffer) in 384 plates and incubated at room temperature for 10 min. To initiate each reaction, 10 μL of peptide solution containing fluorescently-labeled-peptide CTD3 (5-FAM-[…], GL, SY346885 #, final concentration 3000 nM) and ATP (final concentration 70 μM) in 1× Kinase buffer was added to each of the wells containing test compound and CDK7/CyclinH/MAT1 mixture. The reaction is then allowed to proceed at 28° C. for 30 min and terminated by the addition of 25 μL stop buffer (100 mM HEPES pH 7.5, 50 mM EDTA, 0.2% Coating Reagent #3 (Perkin Elmer, 760050 #) and 0.015% Brij-35).
# as §1, with “the phosphoiylated” for “the phosphorylated”, “peptide CTD3” for “peptide 18”
# [3] = target: T3, CDK9/CyclinT1 (Homo sapiens, UniProt P50750); assay: CDK9/CyclinT1 kinase inhibitory activity (Caliper mobility shift); details: enzyme 12.5 nM, ATP 10M, 28° C. 30 min; read-out: CDK9/Cyclin T1 IC50
# T3 construct: purchased Millipore 14-685M
# T3 sequence (P50750 whole entry): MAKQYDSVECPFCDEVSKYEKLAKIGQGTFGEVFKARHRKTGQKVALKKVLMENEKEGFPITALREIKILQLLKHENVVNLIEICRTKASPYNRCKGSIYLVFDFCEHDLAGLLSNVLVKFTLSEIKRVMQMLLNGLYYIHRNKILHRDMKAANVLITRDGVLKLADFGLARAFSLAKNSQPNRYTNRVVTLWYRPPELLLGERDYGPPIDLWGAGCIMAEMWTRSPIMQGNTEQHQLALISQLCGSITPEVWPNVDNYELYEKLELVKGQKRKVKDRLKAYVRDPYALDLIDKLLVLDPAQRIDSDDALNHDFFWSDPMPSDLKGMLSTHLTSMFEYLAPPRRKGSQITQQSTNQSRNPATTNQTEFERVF
# T3 sequence (O60563 whole entry partner): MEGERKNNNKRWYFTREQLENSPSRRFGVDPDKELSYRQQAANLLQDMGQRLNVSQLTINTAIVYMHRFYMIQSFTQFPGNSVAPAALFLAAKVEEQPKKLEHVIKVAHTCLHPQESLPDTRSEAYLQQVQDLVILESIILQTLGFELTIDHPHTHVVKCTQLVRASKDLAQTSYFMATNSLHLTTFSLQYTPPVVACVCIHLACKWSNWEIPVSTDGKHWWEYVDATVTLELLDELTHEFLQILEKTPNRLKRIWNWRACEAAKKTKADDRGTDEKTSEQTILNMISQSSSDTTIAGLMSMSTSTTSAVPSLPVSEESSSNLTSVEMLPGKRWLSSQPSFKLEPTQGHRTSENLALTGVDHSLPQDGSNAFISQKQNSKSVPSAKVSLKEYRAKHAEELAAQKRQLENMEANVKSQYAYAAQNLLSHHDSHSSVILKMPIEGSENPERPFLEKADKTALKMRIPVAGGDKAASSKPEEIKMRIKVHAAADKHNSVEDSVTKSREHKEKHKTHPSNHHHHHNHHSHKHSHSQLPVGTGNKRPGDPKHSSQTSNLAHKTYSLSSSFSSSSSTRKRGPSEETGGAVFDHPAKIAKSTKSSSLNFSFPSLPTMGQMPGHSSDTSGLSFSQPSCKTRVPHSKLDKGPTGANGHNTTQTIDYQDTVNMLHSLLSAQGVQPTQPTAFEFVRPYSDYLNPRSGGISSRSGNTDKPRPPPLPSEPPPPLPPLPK
# Protocol: as §2, with “CDK9/CyclinT1” for “CDK7/CyclinH/MAT1”, “14-685M” for “14-476M”, “fluorescently-labeled -peptide” for “fluorescently-labeled-peptide”, “[…])” for “70 μM)”
# as §1, with “CTD3” for “18”
# T1 sequence (P06493 whole entry): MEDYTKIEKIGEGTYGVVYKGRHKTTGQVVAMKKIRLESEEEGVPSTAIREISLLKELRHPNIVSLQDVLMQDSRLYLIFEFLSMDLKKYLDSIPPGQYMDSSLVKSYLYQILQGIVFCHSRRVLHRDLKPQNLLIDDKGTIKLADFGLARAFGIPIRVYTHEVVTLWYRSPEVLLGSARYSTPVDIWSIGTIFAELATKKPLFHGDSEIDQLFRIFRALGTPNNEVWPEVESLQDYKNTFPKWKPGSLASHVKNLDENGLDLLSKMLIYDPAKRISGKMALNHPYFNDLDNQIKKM
# T1 sequence (P14635 whole entry partner): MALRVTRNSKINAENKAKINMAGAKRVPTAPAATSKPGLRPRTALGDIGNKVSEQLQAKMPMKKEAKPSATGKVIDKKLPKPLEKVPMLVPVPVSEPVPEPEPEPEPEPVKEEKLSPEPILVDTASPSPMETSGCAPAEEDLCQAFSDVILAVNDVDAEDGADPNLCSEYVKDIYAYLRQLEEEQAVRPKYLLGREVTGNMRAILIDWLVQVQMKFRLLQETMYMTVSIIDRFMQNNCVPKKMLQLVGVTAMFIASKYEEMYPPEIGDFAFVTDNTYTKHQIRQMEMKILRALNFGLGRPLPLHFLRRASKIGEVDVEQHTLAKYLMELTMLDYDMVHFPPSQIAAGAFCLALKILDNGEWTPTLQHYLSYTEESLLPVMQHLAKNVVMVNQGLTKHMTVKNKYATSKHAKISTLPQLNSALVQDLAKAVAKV
Compound,IC50 [1],IC50 [2],IC50 [3]
CNC(C)(C)c1cnc2c(F)cc(-c3nc(N[C@@H]4CCOC[C@H]4O)ncc3Cl)cc2c1 [Example 36],≥ 1000 nM,≥ 1000 nM,100 to 1000 nM
"[2H]C([2H])([2H])C(O)(c1cc2cc(-c3nc(N[C@@H]4CCOC[C@H]4O)ncc3Cl)cc(F)c2nc1C)C([2H])([2H])[2H] [Example 60, (3S,4R)-4-((5-chloro-4-(8-fluoro-3-(2-hydroxypropan-2-yl-1,1,1,3,3,3-d6)-2-methylquinolin-6-yl)pyrimidin-2-yl)amino)tetrahydro-2H-pyran-3-ol]",≥ 1000 nM,≥ 1000 nM,100 to 1000 nM
[2H]c1nc2c(F)cc(-c3nc(N[C@@H]4CCOC[C@H]4O)ncc3C)cc2c2c1CC(C)(C)NC2 [Example 102],≥ 1000 nM,≥ 1000 nM,100 to 1000 nM
CC(C)(O)c1cnc2c(F)cc(-c3nc(N[C@@H]4CCOC[C@H]4O)ncc3C#N)cc2c1Cl [Example 41],≥ 1000 nM,≥ 1000 nM,≥ 1000 nM

# Further lines, results first:
IC50 [1],IC50 [2],IC50 [3],Compound
100 to 1000 nM,100 to 1000 nM,10 to 100 nM,"CC1Cc2cnc3c(F)cc(-c4nc(N[C@@H]5CCOC[C@H]5O)ncc4Cl)cc3c2CN1 (single isomer, unassigned) [Example 34a]"
100 to 1000 nM,100 to 1000 nM,100 to 1000 nM,"Cc1nc2c(F)cc(-c3nc(N[C@@H]4CCOC[C@H]4O)ncc3Cl)cc2c(C)c1[C@H](C)O (single isomer, unassigned) [Example 15b]"
